Assay results reported in patent US9938276B2, “6,5-bicyclic octahydropyrrolopyridine orexin receptor antagonists” (Merck Sharp & Dohme Corp., priority 2014, dated 2018).

Key:
[1] = target: human orexin-2 receptor (Homo sapiens (Human), UniProt O43614); assay: hOX2R FLIPR Ca2+ flux assay; type: cell-based; conditions: CHO cells expressing the receptor; agonist 70 pM Ala-6,12 human orexin-A
Protocol: In a typical experiment the OX1 and OX2 receptor antagonistic activity of the compounds of the present invention was determined in accordance with the following experimental method. For intracellular calcium measurements, Chinese hamster ovary (CHO) cells expressing the rat orexin-1 receptor or the human orexin-2 receptor, are grown in Iscove's modified DMEM containing 2 mM L-glutamine, […], 1% hypoxanthine-thymidine supplement, 100 U/ml penicillin, 100 μg/ml streptomycin and 10% heat-inactivated fetal calf serum (FCS). The cells are seeded at 20,000 cells/well into Becton-Dickinson black 384-well clear bottom sterile plates coated with poly-D-lysine. All reagents were from GIBCO-Invitrogen Corp. The seeded plates are incubated overnight at 37° C. and 5% CO2. Ala-6,12 human orexin-A as the agonist is prepared as a 1 mM stock solution in 1% bovine serum albumin (BSA) and diluted in assay buffer (HBSS containing 20 mM HEPES, 0.1% BSA and 2.5 mM probenecid, pH7.4) for use in the assay at a final concentration of 70 pM. Test compounds are prepared as 10 mM stock solution in DMSO, then diluted in 384-well plates, first in DMSO, then assay buffer. On the day of the assay, cells are washed 3 times with 100 μl assay buffer and then incubated for 60 min (37° C., 5% CO2) in 60 μl assay buffer containing 1 μM Fluo-4AM ester, 0.02% pluronic acid, and 1% BSA. The dye loading solution is then aspirated and cells are washed 3 times with 100 μl assay buffer. 30 μl of that same buffer is left in each well. Within the Fluorescent Imaging Plate Reader (FLIPR, Molecular Devices), test compounds are added to the plate in a volume of 25 μl, incubated for 5 min and finally 25 μl of agonist is added. Fluorescence is measured for each well at 1 second intervals for 5 minutes and the height of each fluorescence peak is compared to the height of the fluorescence peak induced by 70 pM Ala-6,12 orexin-A with buffer in place of antagonist. […] Alternatively, compound potency can be assessed by a radioligand binding assay (described in Bergman et. al. Bioorg. Med. Chem. Lett. 2008, 18, 1425-1430) in which the inhibition constant (Ki) is determined in membranes prepared from CHO cells expressing either the OX1 or OX2 receptor. The intrinsic orexin receptor antagonist activity of a compound which may be used in the present invention may be determined by these assays.

[2] = target: hOX1R (Homo sapiens, UniProt O43613); assay: hOX1R FLIPR Ca2+ flux assay; type: cell-based; conditions: CHO cells expressing the receptor; agonist 70 pM Ala-6,12 human orexin-A

human orexin-2 receptor, sequence (O43614 whole entry): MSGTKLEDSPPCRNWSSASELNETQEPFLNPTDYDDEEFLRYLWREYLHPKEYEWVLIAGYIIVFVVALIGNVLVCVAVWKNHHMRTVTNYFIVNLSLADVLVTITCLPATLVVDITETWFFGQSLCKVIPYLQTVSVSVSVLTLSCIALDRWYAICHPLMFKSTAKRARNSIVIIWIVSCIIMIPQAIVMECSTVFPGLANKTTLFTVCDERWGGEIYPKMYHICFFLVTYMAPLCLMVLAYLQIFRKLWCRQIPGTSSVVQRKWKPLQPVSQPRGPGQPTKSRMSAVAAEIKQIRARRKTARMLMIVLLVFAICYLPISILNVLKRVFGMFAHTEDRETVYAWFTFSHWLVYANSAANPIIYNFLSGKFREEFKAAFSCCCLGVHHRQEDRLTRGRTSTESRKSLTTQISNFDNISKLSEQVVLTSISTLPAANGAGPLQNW

SMILES	IC50 [1]	IC50 [2]
N#Cc1ccnc(N2CC[C@@H]3CCN(C(=O)c4ccccc4-n4nccn4)C[C@@H]32)c1Cl [Example A19, 3-chloro-2-[(3aR, 7aR)-6-{[2-(2H-1,2,3-triazol-2-yl)phenyl]carbonyl}octahydro-1H-pyrrolo[2,3-c]pyridin-1-yl]pyridine-4-carbonitrile]	0.0955 µM	≥ 10 µM
O=C(c1ccccc1-n1nccn1)N1CC[C@H]2CCN(c3cc(C(F)(F)F)ccn3)[C@H]2C1 [Example A20, (3aR, 7aR)-6-{[2-(2H-1,2,3-triazol-2-yl)phenyl]carbonyl}-1-[4-(trifluoromethyl)pyridin-2-yl]octahydro-1H-pyrrolo[2,3-c]pyridine]	0.0665 µM	3.96 µM
Cc1ccnc(N2CC[C@@H]3CCN(C(=O)c4ccccc4-n4nccn4)C[C@@H]32)c1 [Example B1, (2-(2H-1,2,3-triazol-2-yl)phenyl)((3aR,7aR)-1-(4-methylpyridin-2-yl)hexahydro-1H-pyrrolo[2,3-c]pyridin-6(2H)-yl)methanone]	0.902 µM	≥ 10 µM
COc1ccnc(N2CC[C@@H]3CCN(C(=O)c4ccccc4-n4nccn4)C[C@@H]32)c1 [Example B3, (3aR, 7aR)-(2-(2H-1,2,3-triazol-2-yl)phenyl)(1-(4-methoxypyridin-2-yl)hexahydro-1H-pyrrolo[2,3-c]pyridin-6(2H)-yl)methanone]	1.01 µM	≥ 10 µM
CCOc1ccnc(N2CC[C@@H]3CCN(C(=O)c4ccccc4-n4nccn4)C[C@@H]32)c1 [Example B4, (3aR, 7aR)-(2-(2H-1,2,3-triazol-2-yl)phenyl)(1-(4-ethoxypyridin-2-yl)hexahydro-1H-pyrrolo[2,3-c]pyridin-6(2H)-yl)methanone]	0.766 µM	≥ 10 µM
N#Cc1cc(N2CC[C@@H]3CCN(C(=O)c4ccccc4-n4nccn4)C[C@@H]32)ncc1F [Example B5, 5-fluoro-2-[(3aR, 7aR)-6-{[2-(2H-1,2,3-triazol-2-yl)phenyl]carbonyl}octahydro-1H-pyrrolo[2,3-c]pyridin-1-yl]pyridine-4-carbonitrile]	4.72 µM	≥ 10 µM
N#Cc1cccc(N2CC[C@@H]3CCN(C(=O)c4ccccc4-n4nccn4)C[C@@H]32)c1 [Example B6, 3-((3aR, 7aR)-6-(2-(2H-1,2,3-triazol-2-yl)benzoyl)octahydro-1H-pyrrolo[2,3-c]pyridin-1-yl)benzonitrile]	1.73 µM	≥ 10 µM
O=C(c1ccccc1-n1nccn1)N1CC[C@H]2CCN(c3ncnc4[nH]ccc34)[C@H]2C1 [Example B7, (3aR, 7aR)-(2-(2H-1,2,3-triazol-2-yl)phenyl)(1-(7H-pyrrolo[2,3-d]pyrimidin-4-yl)hexahydro-1H-pyrrolo[2,3-c]pyridin-6(2H)-yl)methanone]	10 µM	10 µM
O=C(c1ccccc1-n1nccn1)N1CC[C@H]2CCN(c3nccc4ncccc34)[C@H]2C1 [Example B8, 5-[(3aR, 7aR)-6-{[2-(2H-1,2,3-triazol-2-yl)phenyl]carbonyl}octahydro-1H-pyrrolo[2,3-c]pyridin-1-yl]-1,6-naphthyridine]	2.52 µM	10 µM
O=C(c1ccccc1-n1nccn1)N1CC[C@H]2CCN(c3nccc4ccccc34)[C@H]2C1 [Example B9, (2-(2H-1,2,3-triazol-2-yl)phenyl)((3aR, 7aR)-1-(isoquinolin-1-yl)hexahydro-1H-pyrrolo[2,3-c]pyridin-6(2H)-yl)methanone]	0.0408 µM	1.66 µM
O=C(c1ccccc1-n1nccn1)N1CC[C@H]2CCN(c3ccnc4ccccc34)[C@H]2C1 [Example B10, (2-(2H-1,2,3-triazol-2-yl)phenyl)((3aR, 7aR)-1-(quinolin-4-yl)hexahydro-1H-pyrrolo[2,3-c]pyridin-6(2H)-yl)methanone]	3.43 µM	10 µM
COC(=O)c1csc(N2CC[C@@H]3CCN(C(=O)c4ccccc4-n4nccn4)C[C@@H]32)n1 [Example B11, methyl 2-((3aS, 7aR)-6-(2-(2H-1,2,3-triazol-2-yl)benzoyl)octahydro-1H-pyrrolo[2,3-c]pyridin-1-yl)thiazole-4-carboxylate]	10 µM	10 µM
O=C(c1ccccc1-n1nccn1)N1CC[C@H]2CCN(c3nccn4nccc34)[C@H]2C1 [Example B13, (3aR, 7aR)-6-(2-(2H-1,2,3-triazol-2-yl)benzoyl)-1-(pyrazolo[1,5-a]pyrazin-4-yl)ocathydro-1H-pyrrolo[2,3-c]pyridin-1-ium]	2.02 µM	10 µM
O=C(c1ccccc1-n1nccn1)N1CC[C@H]2CCN(c3nccn4ccnc34)[C@H]2C1 [Example B14, (2-(2H-1,2,3-triazol-2-yl)phenyl)((3aR, 7aR)-1-(imidazo[1,2-a]pyrazin-8-yl)hexahydro-1H-pyrrolo[2,3-c]pyridin-6(2H)-yl)methanone]	1.07 µM	≥ 10 µM
O=C(c1ccccc1-n1nccn1)N1CC[C@H]2CCN(c3ncnc4sccc34)[C@H]2C1 [Example B15, (2-(2H-1,2,3-triazol-2-yl)phenyl)((3aR, 7aR)-1-(thieno[2,3-d]pyrimidin-4-yl)hexahydro-1H-pyrrolo[2,3-c]pyridin-6(2H)-yl)methanone]	≥ 10 µM	≥ 10 µM
O=C(c1ccccc1-n1nccn1)N1CC[C@H]2CCN(c3nccc4cccnc34)[C@H]2C1 [Example B16, ((3aR, 7aR)-1-(1,7-naphthyridin-8-yl)hexahydro-1H-pyrrolo[2,3-c]pyridin-6(2H)-yl)(2-(2H-1,2,3-triazol-2-yl)phenyl)methanone]	0.75 µM	≥ 10 µM
O=C(c1ccccc1-n1nccn1)N1CC[C@H]2CCN(c3ccc4ccccc4n3)[C@H]2C1 [Example B18, 2-[(3aR, 7aR)-6-{[2-(2H-1,2,3-triazol-2-yl)phenyl]carbonyl}octahydro-1H-pyrrolo[2,3-c]pyridin-1-yl]quinoline]	1.53 µM	1.04 µM
O=C1OCc2c1ccnc2N1CC[C@@H]2CCN(C(=O)c3ccccc3-n3nccn3)C[C@@H]21 [Example B19, 4-[(3aR, 7aR)-6-{[2-(2H-1,2,3-triazol-2-yl)phenyl]carbonyl}octahydro-1H-pyrrolo[2,3-c]pyridin-1-yl]furo[3,4-c]pyridin-1(3H)-one]	1.01 µM	10 µM
Cc1cncc(N2CC[C@@H]3CCN(C(=O)c4ccccc4-n4nccn4)C[C@@H]32)n1 [Example B20, (3aR, 7aR)-1-(6-methylpyrazin-2-yl)-6-{[2-(2H-1,2,3-triazol-2-yl)phenyl]carbonyl}octahydro-1H-pyrrolo[2,3-c]pyridine]	2.08 µM	≥ 10 µM
Cc1ncc(N2CC[C@@H]3CCN(C(=O)c4ccccc4-n4nccn4)C[C@@H]32)nc1C [Example B21, (3aR, 7aR)-1-(5,6-dimethylpyrazin-2-yl)-6-{[2-(2H-1,2,3-triazol-2-yl)phenyl]carbonyl}octahydro-1H-pyrrolo[2,3-c]pyridine]	0.948 µM	10 µM
Cc1cnc(C)c(N2CC[C@@H]3CCN(C(=O)c4ccccc4-n4nccn4)C[C@@H]32)n1 [Example B22, (3aR, 7aR)-1-(3,6-dimethylpyrazin-2-yl)-6-{[2-(2H-1,2,3-triazol-2-yl)phenyl]carbonyl}octahydro-1H-pyrrolo[2,3-c]pyridine]	5.91 µM	≥ 10 µM
O=C(c1ccccc1-n1nccn1)N1CC[C@H]2CCN(c3cncc4ccccc34)[C@H]2C1 [Example B23, 4-[(3aR, 7aR)-6-{[2-(2H-1,2,3-triazol-2-yl)phenyl]carbonyl}octahydro-1H-pyrrolo[2,3-c]pyridin-1-yl]isoquinoline]	7.07 µM	10 µM
CC(C)(O)c1csc(N2CC[C@H]3CCN(C(=O)c4ccccc4-n4nccn4)C[C@@H]32)n1 [Example C1]	0.202 µM	10 µM
CC(C)(O)c1coc(N2CC[C@@H]3CCN(C(=O)c4ccccc4-n4nccn4)C[C@@H]32)n1 [Example C2]	0.342 µM	10 µM
CC(O)(c1cncc(N2CC[C@@H]3CCN(C(=O)c4ccccc4-n4nccn4)C[C@@H]32)n1)C(F)(F)F (stereo partly drawn) [Example C3, 1,1,1-trifluoro-2-{6-[(3aR, 7aR)-6-{[2-(2H-1,2,3-triazol-2-yl)phenyl]carbonyl}octahydro-1H-pyrrolo[2,3-c]pyridin-1-yl]pyrazin-2-yl}propan-2-ol]	3.34 µM	≥ 10 µM
